Test results taken from patent US10961309B2, “Reducing systemic regulatory T cell levels or activity for treatment of disease and injury of the CNS” (Yeda Research and Development Co. Ltd, priority 2014, dated 2021).

Legend:
Foxp3+ Tregs = assay: Conditional ablation of Treg by DTx, confirmed by flow cytometry; assay type: in vivo, mouse
Protocol: Mice were transcardially perfused with PBS, and tissues were treated as previously described (Baruch et al, 2013). Brains were dissected and the different brain regions were removed under a dissecting microscope (Stemi DV4; Zeiss) in PBS, and tissues were dissociated using the gentleMACS™ dissociator (Miltenyi Biotec). Choroid plexus tissues were isolated from the lateral, third and fourth ventricles of the brain, incubated at 37° C. for 45 min in PBS (with Ca^2+/Mg^2+) containing 400 U/ml collagenase type IV (Worthington Biochemical Corporation), and then manually homogenized by pipetting. Spleens were mashed with the plunger of a syringe and treated with ACK (ammonium chloride potassium) lysing buffer to remove erythrocytes. In all cases, samples were stained according to the manufacturers' protocols. All samples were filtered through a 70 μm nylon mesh, and blocked with anti-Fc CD16/32 (1:100; BD Biosciences). For intracellular staining of IFN-γ, the cells were incubated with […] (10 ng/ml; Sigma-Aldrich) and ionomycin (250 ng/ml; Sigma-Aldrich) for 6 h, and Brefeldin-A (10 μg/ml; Sigma-Aldrich) was added for the last 4 h. Intracellular labeling of cytokines was done with BD Cytofix/Cytoperm™ Plus fixation/permeabilization kit (cat. no. 555028). […] Cells were analyzed on an LSRII cytometer (BD Biosciences) using FlowJo software. […]

GFP+ mo-MΦ = assay: Homing of GFP+ mo-MΦ in AD-Tg/CX3CR1GFP/+ BM chimeras; assay type: in vivo, mouse
Protocol: Tissue processing and immunohistochemistry were performed on paraffin embedded sectioned mouse (6 μm thick) and human (10 μm thick) brains. For human ICAM-1 staining, primary mouse anti-ICAM (1:20 Abcam; ab2213) antibody was used. Slides were incubated for 10 min with 3% H2O2, and a secondary biotin-conjugated anti-mouse antibody was used, followed by biotin/avidin amplification with Vectastain ABC kit (Vector Laboratories). Subsequently, 3,3′-diaminobenzidine (DAB substrate) (Zytomed kit) was applied; slides were dehydrated and mounted with xylene-based mounting solution. For tissue stainings, mice were transcardially perfused with PBS prior to tissue excision and fixation. CP tissues were isolated under a dissecting microscope (Stemi DV4; Zeiss) from the lateral, third, and fourth ventricles of the brain. […] Microscopic analysis, was performed using a fluorescence microscope (E800; Nikon) or laser-scanning confocal microscope (Carl Zeiss, Inc.). The fluorescence microscope was equipped with a digital camera (DXM 1200F; Nikon), and with either a 20× NA 0.50 or 40× NA 0.75 objective lens (Plan Fluor; Nikon). […] For quantification of staining intensity, total cell and background staining was measured using ImageJ software (NIH), and intensity of specific staining was calculated, as previously described (Burgess et al, 2010). […]

| Substance | depletion of the GFP-expressing FoxP3+ CD4+ Treg cells (Foxp3+ Tregs; blood and spleen, Foxp3.LuciDTR mice, DTx 8 ng/g i.p. daily 4 consecutive days) [%] | depletion of Foxp3+ cells (Foxp3+ Tregs; splenocytes from AD-Tg/Foxp3-DTR+/− mice, 1 day after last injection, DTx i.p. 4 days) [%] | homing of GFP+ mo-MΦ to the CP and adjacent ventricular spaces (GFP+ mo-MΦ; weekly-GA vs vehicle-treated AD-Tg/CX3CR1GFP/+ controls) | GFP+ mo-MΦ in the brain parenchyma (immunohistochemistry) (GFP+ mo-MΦ; weekly-GA, AD-Tg/CX3CR1GFP/+ chimeras) |
| --- | --- | --- | --- | --- |
| Diphtheria toxin [DTx] | > 99 | ~99 |  |  |
| Glatiramer acetate [GA] |  |  | increased homing | accumulation at sites of cerebral plaque formation |
